Results reported in patent publication US8664271B2, “Stabilized leukotriene B4 (LTB4) agent pharmaceutical formulation” (LTB4 Sweden AB, priority 2004, dated 2014).

What was measured:
Assay type in all cases: physicochemical
[1] = Stability of aqueous LTB4 Na salt solution at pH 7.4 with or without EDTA (HPLC impurities); conditions: aqueous solution 5 mg/ml
Method: LTB4 (acid form) was obtained from Cascade Biochem (U.K.) in solution in ethanol/water, 95/5. The purity level of this starting material was about 98.5% (+0.3%) as assessed by reverse phase HPLC. The ethanolic LTB4 solution was neutralized with an equivalent of sodium hydroxide to obtain LTB4 sodium (Na) salt. The ethanolic solution of LTB4 Na salt was evaporated to dryness under reduced pressure using a rotoevaporator and a water bath (30° C.), until an oily residue is obtained. The residue was redisolved in Dulbeccos' phosphate buffered saline (DPBS) at pH 7.4 containing or not, 0.01% ethylenediaminetetraacetic acid (EDTA) to obtain a final concentration of 5 mg LTB4/ml. Solutions were dispensed in 2 ml type I borosilicate glass vials which were then sealed under argon using Teflon-lined rubber stoppers and aluminium caps. The samples were stored in the dark at 25±5° C. until analysis at the indicated time points. Analysis of LTB4 solutions was carried out by reverse phase HPLC using a C18, 5μ particle, 4.7X250 mm column (Nucleosil) and methanol/acetronitrile gradient elution; detection of LTB4 and impurities was performed on line using an HPLC UV spectrophotometer at 270 nm.

[2] = Effect of pH (phosphate buffer) on stability of aqueous LTB4 Na salt solution at 17.5 μg/ml
Method: Aqueous isotonic LTB4 Na salt solutions at the concentration of 17.5 μg/ml were obtained by dilution in phosphate buffered saline (3 mM sodium phosphate buffer, pH 7.5, 8.5, 9.5 and 10.5) containing 0.01% EDTA of an LTB4 Na salt solution at 25 mg/ml (Example 2). Solutions of LTB4 Na salt at 17.5 μg/ml of the 4 different pH were dispensed in 2 ml vials for storage under air, in the dark at 4±4° C. or 20±5° C. for 15 months prior to reverse phase HPLC analysis of LTB4 and impurities, as described in Example 1.

[3] = Forced degradation of aqueous LTB4 sodium salt solutions at increasing sodium hydroxide concentrations; conditions: for impurity level: five weeks at 40° C.; for pH after five weeks of storage / final pH (after five weeks): 40° C.
Method: An ethanolic solution of LTB4 (acid form) obtained from Cascade Biochem (UK) was neutralized by the addition of 1 equivalent of sodium hydroxide to generate LTB4 sodium salt. Aliquots of the ethanolic solution of the sodium salt of LTB4 were dispensed into 2-ml vials (to obtain 2 mg of LTB4 per vial) and the solvent was evaporated to dryness under a stream of nitrogen. The residues in vials were dissolved with 0.9% sodium chloride (NaCl) (vial 1), 0.9% NaCl in 0.1 mN NaOH (vial 2), 0.9% NaCl in 1 mN NaOH (vial 3), 0.9% NaCl in 10 mN NaOH (vial 4), 0.3% NaCl in 0.1N NaOH (vial 5) and in 1N NaOH (vial 6). Aliquots of the solutions were taken for immediate analysis (to) and the remaining solutions of LTB4 sodium salt at 2 mg/ml were stored under air, in the dark at 40±5° C. for five weeks, prior to reverse phase HPLC analysis of LTB4 and impurities as described in example 1.

[4] = Effect of glycine buffer strength and pH on stability of aqueous LTB4 Na salt solutions; conditions: 5 months at 40° C.; for level of impurities: 35 μg/ml
Method: Aqueous isotonic LTB4 Na salt solutions at the concentration of 35 and 350 μg/ml in phosphate buffered saline ([…]) containing 0.01% EDTA and various concentrations of glycine (from 0.01 mM to 10 mM) were obtained by dilution of a 25 mg/ml solution of LTB4 Na salt (Example 2). Solutions of LTB4 Na salt at 35 and 350 μg/ml at the 4 different glycine concentrations were dispensed in 2 ml vials for storage under air in the dark at 40±5° C. for 5 months prior to reverse phase HPLC analysis of LTB4 and impurities as described in Example 1.

[5] = Forced degradation (40° C.) of aqueous LTB4 Na salt solutions at different concentrations; conditions: aqueous isotonic pH 7.5, 0.01% EDTA
Method: A solution of LTB4 (acid form) at the concentration of 12 mg/ml in ethanol/water, 95/5 (from Cascade Biochem, U.K.), was neutralized with an equivalent of sodium hydroxide to generate the Na salt. […] The ethanolic solution of LTB4 Na salt was evaporated (see Example 1) until an oily residue is obtained. The residue was then redissolved in a phosphate buffered sodium chloride solution (saline) (30 mM sodium phosphate, pH 7.5) containing 0.01% EDTA in order to obtain an isotonic solution of LTB4 Na salt at 25 mg/ml. LTB4 Na salt solution at 0.1 mg/ml was obtained by dilution of the 25 mg/ml solution with an isotonic 30 mM sodium phosphate buffered saline, pH 7.5 containing 0.01% EDTA. Aliquots of the solutions were dispensed in 2 ml type I glass vials as described in Example 1, and stored under air, in the dark, at 40±5° C. LTB4 and impurities were analyzed at the indicated times by reverse phase HPLC using UV detection at 270 nm.

[6] = Effect of pH (phosphate/glycine buffer) on stability of aqueous LTB4 Na salt solution at 1.75 mg/ml
Method: Aqueous isotonic LTB4 Na salt solutions at the concentration of 1.75 mg/ml in phosphate/glycine buffered saline (3 mM sodium phosphate and 10 mM glycine buffer, pH 7.5, 8.5, 9.5 and 10.5) containing 0.01% EDTA were obtained by dilution of a 25 mg/ml solution of LTB4 Na salt (see Example 2) with the appropriate phosphate/glycine buffered saline containing 0.01% EDTA. Solutions were dispensed in 2 ml vials for storage under air, in the dark at 4±4° C. and 20±5° C. for 9 months prior to reverse phase HPLC analysis of LTB4 and impurities as described in Example 1.

impurity level ([1]; DPBS pH 7.4, 0.01% EDTA, 60 days of storage at 25° C.): 2.9%
impurity level ([1]; DPBS pH 7.4, 0.01% EDTA, 90 days of storage at 25° C.): 8.6%
degradation ([1]; DPBS pH 7.4, 0.01% EDTA, up to 14 days of storage at 25° C.): no increase of degradation
level of impurities ([1]; DPBS pH 7.4, no EDTA, 7 days of storage at 25° C.): increased level of impurities
impurity level ([1]; DPBS pH 7.4, no EDTA, 14 days of storage at 25° C.): 23.3 % of LTB4 peak area
degradation of LTB4 ([2]; pH 7.5 to 10.5, 15 months of storage at 4° C.): very little degradation
effect of increasing pH on stability ([2]; phosphate buffered saline pH 7.5 to 10.5, 0.01% EDTA, 15 months, more evident at 20° C.): strikingly increases the stability
impurity level ([3]; vial 1: 2 mg/ml in 0.9% NaCl): 100%
pH after five weeks of storage ([3]; vial 1: 0.9% NaCl): < 5
impurity level ([3]; vial 2: 2 mg/ml in 0.9% NaCl in 0.1 mN NaOH): 100%
pH after five weeks of storage ([3]; vial 2: 0.9% NaCl in 0.1 mN NaOH): < 5
impurity level ([3]; vial 3: 2 mg/ml in 0.9% NaCl in 1 mN NaOH): 5.34 % of AUC 270 nm
final pH (after five weeks) ([3]; vial 3: 0.9% NaCl in 1 mN NaOH): 8.02
impurity level ([3]; vial 4: 2 mg/ml in 0.9% NaCl in 10 mN NaOH): 3.46 % of AUC 270 nm
final pH (after five weeks) ([3]; vial 4: 0.9% NaCl in 10 mN NaOH): 9.83
impurity level ([3]; vial 5: 2 mg/ml in 0.3% NaCl in 0.1N NaOH): 4.38 % of AUC 270 nm
final pH (after five weeks) ([3]; vial 5: 0.3% NaCl in 0.1N NaOH): 12.50
impurity level ([3]; vial 6: 2 mg/ml in 1N NaOH): 5.77 % of AUC 270 nm
final pH (after five weeks) ([3]; vial 6: 1N NaOH): 13.03
level of impurities ([4]; pH 7.5, 10 mM glycine, data not shown): 20%
level of impurities ([4]; pH 9.5, 10 mM glycine): 6.5%
impact of glycine buffer concentration on stability ([4]; glycine 0.01 mM to 10 mM, pH 9.5, 35 μg/ml): little impact
stability of 25 mg/ml solution compared with 0.1 mg/ml solution [5]: much less stable
effect of increasing pH on stability ([6]; 1.75 mg/ml, phosphate/glycine buffered saline pH 7.5 to 10.5, 0.01% EDTA, 9 months at 4° C. and 20° C.): strikingly increases the stability
effect of increasing pH on solution stability ([6]; forced degradation, storage at 40° C., data not shown): dramatic improvement
SMILES: CCCCC/C=C\C[C@@H](O)/C=C/C=C/C=C\[C@@H](O)CCCC(=O)[O-].[Na+] [LTB4 Na salt]
